Reference: US8158810B2 (Gilead Sciences, Inc., priority 2006, dated 2012)
Values joined by “and” are separate entries in the source; they are usually repeats but may differ in a detail not shown here. Equal values may be shown once.

Key:
Type in all cases: biochemical
hMAO-A = molecular target: T1, hMAO-A (Homo sapiens, UniProt P21397); test: MAO-A inhibition assay; conditions: up to 10 μM; No = no inhibition; printed in the IC50 hMAO-A column
T1 construct: purchased Sigma M7316
T1 sequence (P21397 1-527): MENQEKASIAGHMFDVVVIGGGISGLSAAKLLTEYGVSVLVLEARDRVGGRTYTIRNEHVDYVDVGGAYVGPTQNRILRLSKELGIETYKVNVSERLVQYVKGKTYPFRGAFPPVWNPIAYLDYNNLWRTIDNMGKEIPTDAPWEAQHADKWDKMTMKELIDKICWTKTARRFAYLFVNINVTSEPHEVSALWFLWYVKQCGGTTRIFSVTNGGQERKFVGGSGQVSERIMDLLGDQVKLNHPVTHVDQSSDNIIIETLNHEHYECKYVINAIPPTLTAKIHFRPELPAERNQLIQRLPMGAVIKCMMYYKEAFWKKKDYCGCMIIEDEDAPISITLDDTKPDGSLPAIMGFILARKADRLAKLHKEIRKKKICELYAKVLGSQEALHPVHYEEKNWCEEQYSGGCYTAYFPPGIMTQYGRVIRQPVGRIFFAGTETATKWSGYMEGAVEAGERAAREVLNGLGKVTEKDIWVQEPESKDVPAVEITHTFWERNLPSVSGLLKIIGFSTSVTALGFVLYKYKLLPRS
How it was run: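 Human MAO-A (0.6 U/ml) or MAO-B (2.5 U/ml) in 0.1 M potassium phosphate pH 7.5 with 0.5 mM tyramine, 0.12 mM Amplex Red and HRP; compounds at 0.1 nM-10 μM, 30 min at 37 °C, absorbance at 570 nm. Background set with clorgyline (MAO-A) or deprenyl (MAO-B); IC50 from sigmoidal fits.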

hMAO-B = molecular target: T2, hMAO-B (Homo sapiens, UniProt P27338); test: MAO-B inhibition assay; conditions: No = no inhibition; for hMAO-B inhibition at 10 μM / inhibition at 10 µM: printed in the IC50 hMAO-B column
T2 construct: purchased Sigma M7441
T2 sequence (P27338 1-520): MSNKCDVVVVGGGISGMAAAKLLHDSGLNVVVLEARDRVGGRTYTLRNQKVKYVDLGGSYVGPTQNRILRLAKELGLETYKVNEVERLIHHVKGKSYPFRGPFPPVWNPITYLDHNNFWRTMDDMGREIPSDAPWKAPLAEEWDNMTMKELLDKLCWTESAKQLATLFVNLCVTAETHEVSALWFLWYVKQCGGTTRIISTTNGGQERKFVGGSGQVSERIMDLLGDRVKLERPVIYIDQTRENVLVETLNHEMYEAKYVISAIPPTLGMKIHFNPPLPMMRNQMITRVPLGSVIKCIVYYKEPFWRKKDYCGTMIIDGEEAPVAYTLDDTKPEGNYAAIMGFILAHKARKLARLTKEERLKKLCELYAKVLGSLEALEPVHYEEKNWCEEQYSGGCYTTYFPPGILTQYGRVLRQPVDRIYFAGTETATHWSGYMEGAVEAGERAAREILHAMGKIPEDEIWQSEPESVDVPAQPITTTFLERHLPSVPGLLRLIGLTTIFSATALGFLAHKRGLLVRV
Method: MAO-A (Sigma M7316) and MAO-B (Sigma M7441) inhibition assays were conducted in 96-well micro-plates according to the method described by Zhou et al. [Analytical Biochemistry 253, 169-174, 1997]. […] Reactions were initiated by the addition of a pre-mixed solution of tyramine, horseradish peroxidase and Amplex Red, and were allowed to proceed at 37° C. for 30 min. Enzyme activities were determined by measuring absorbance at 570 nm (SpectralMax Plate reader), absorbance of oxidized Amplex Red generated by this horseradish peroxidase-coupled reaction. Nonspecifically formed products were determined in the presence of 2 and 10 µM clorgyline and deprenyl for MAO-A and MAO-B, respectively. IC50 values were determined by fitting concentration-inhibition data to sigmoidal dose-response curves with two-floating parameters: IC50 and Hill coefficient.

[1] = molecular target: T3, hALDH2 (recombinant human mitochondria ALDH) (Homo sapiens, UniProt P05091); test: ALDH2 inhibition assay; conditions: for hALDH2 inhibition at 1 μM: printed in the IC50 hALDH2 column
T3 sequence (P05091 18-517): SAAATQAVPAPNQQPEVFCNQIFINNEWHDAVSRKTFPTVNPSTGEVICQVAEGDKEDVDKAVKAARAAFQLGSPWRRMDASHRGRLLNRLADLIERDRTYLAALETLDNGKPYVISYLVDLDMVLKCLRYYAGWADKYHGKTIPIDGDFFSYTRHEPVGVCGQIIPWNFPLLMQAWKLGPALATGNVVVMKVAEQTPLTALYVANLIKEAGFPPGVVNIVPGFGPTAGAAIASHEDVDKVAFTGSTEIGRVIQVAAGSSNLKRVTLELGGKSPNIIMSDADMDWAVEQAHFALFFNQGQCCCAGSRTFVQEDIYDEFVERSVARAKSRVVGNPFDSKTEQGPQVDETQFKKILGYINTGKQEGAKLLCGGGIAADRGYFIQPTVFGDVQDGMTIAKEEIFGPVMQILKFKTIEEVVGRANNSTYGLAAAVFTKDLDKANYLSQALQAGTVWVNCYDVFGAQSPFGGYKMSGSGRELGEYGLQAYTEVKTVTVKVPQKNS
Method: ALDH2 inhibition assays were performed in sodium phosphate buffer (50 mM, pH 7.4) containing 1.2 mM NAD^+ (Sigma N7004), 1 nM hALDH2 (recombinant human mitochondria ALDH), various concentrations of test compounds (from 0.03 nM to […]), and 0.15 mM freshly prepared formaldehyde solution (Ladd Research 20295). Reactions were initiated by the addition of formaldehyde and rates were recorded by monitoring NADH formation in a temperature controlled (25° C.) FluoroMax-2 Fluorimeter with excitation and emission wavelengths set at 340 and 460 nm, respectively. […] Normally, IC50 values were determined by fitting concentration-inhibition data to sigmoidal dose-response curves with two-floating parameters: IC50 and Hill coefficient. When tight binding situation was suspected, apparent Ki values were estimated by fitting dose-response data to Morrison's equation [Methods in Enzymology 63, 437-467, 1979].

Compound	hMAO-A inhibition up to 10 μM (hMAO-A)	hMAO-B inhibition at 10 μM (hMAO-B)	IC50 [1]	inhibition at 10 µM (hMAO-B) [%]	hALDH2 inhibition at 1 μM [1] [%]	hMAO-B inhibition up to 10 μM (hMAO-B; up to 10 μM)
ethyl 3-[7-({3-[3-fluoro-5-(trifluoromethyl)phenyl](1,2,4-oxadiazol-5-yl)}ethoxy)-4-oxochromen-3-yl]benzoate [PT-76]	No	21%	63 nM	–	–	–
O=c1c(-c2ccc(O)cc2)coc2cc(OCCc3nnc(-c4ccc(F)cc4)o3)ccc12 [PT-112, 7-{[5-(4-fluorophenyl)(1,3,4-oxadiazol-2-yl)]echoxy}-3-(4-hydroxyphenyl)chromen-4-one]	No	No	5 nM	–	–	–
CC(Oc1ccc2c(=O)c(-c3ccc(O)cc3)coc2c1)c1nnc(-c2cccnc2)o1 (stereo not shown)	No	–	17 nM and 15 nM	30	–	–
O=c1c(-c2ccc(O)cc2)coc2cc(OCCc3n[nH]cc3-c3ccc(Cl)cc3)ccc12 [PT-51, 7-{2-[4-(4-chlorophenyl)pyrazolyl]ethoxy}-3-(4-hydroxyphenyl)chromen-4-one]	–	–	110 nM	–	–	–
O=c1c(-c2ccc(O)cc2)coc2cc(OCCc3cccc(C(F)(F)F)c3)ccc12 [PT-59, 3-(4-hydroxyphenyl)-7-{[3-(trifluoromethyl)phenyl]ethoxy}chromen-4-one]	No	24%	670 nM	–	–	–
N#Cc1cc(-c2coc3cc(OCc4noc(-c5cc(F)cc(C(F)(F)F)c5)n4)ccc3c2=O)ccc1F [PT-9, 2-fluoro-5-[7-({5-[5-fluoro-3-(trifluoromethyl)phenyl](1,2,4-oxadiazol-3-yl)}methoxy)-4-oxochromen-3-yl]benzenecarbonitrile]	–	–	–	–	25	–
3-(4-hydroxyphenyl)-7-(2-{4-[3-(trifluoromethyl)phenyl]piperazinyl}ethoxy)chromen-4-one [PT-124]	No	21%	18 nM	–	–	–
CC(C)OC(=O)c1cccc(COc2ccc3c(=O)c(-c4ccc(O)cc4)coc3c2)c1 [PT-35, methylethyl 3-{[3-(4-hydroxyphenyl)-4-oxochromen-7-yloxy]methyl}benzoate]	No	–	20 nM	–	–	No
O=c1c(-c2ccc(O)cc2)coc2cc(OCCCc3n[nH]cc3-c3ccc(Cl)cc3)ccc12 [PT-106, 7-{3-[4-(4-chlorophenyl)pyrazolyl]propoxy}-3-(4-hydroxyphenyl)chromen-4-one]	–	–	110 nM	–	–	–
3-(4-hydroxyphenyl)-7-[(5-(4-pyridyl)(1,2,4-oxadiazol-3-yl))ethoxy]chromen-4-one [PT-117]	No	No	98 nM	–	–	–
CC(Oc1ccc2c(=O)c(-c3ccc(O)cc3)coc2c1)c1noc(-c2cc(F)cc(C(F)(F)F)c2)n1 (stereo not shown)	No	–	48 nM	18	–	–
O=c1c(-c2cn[nH]c2)coc2cc(OCc3noc(-c4cc(F)cc(C(F)(F)F)c4)n3)ccc12 [PT-75, 7-({5-[3-fluoro-5-(trifluoromethyl)phenyl](1,2,4-oxadiazol-3-yl)}methoxy)-3-(5-hydropyrazol-4-yl)chromen-4-one]	No	No	–	–	14	–
3-(4-hydroxyphenyl)-7-[(6-pyrazolyl(3-pyridyl))methoxy]chromen-4-one [PT-52]	No	–	10 nM	–	–	–
7-{2-[4-(3-chlorophenyl)piperazinyl]ethoxy}-3-(4-hydroxyphenyl)chromen-4-one [PT-123]	No	–	11 nM	–	–	–
